Test results: patent US11708344B2, “Flavone derivatives for the treatment and prophylaxis of hepatitis B virus disease” (Hoffmann-La Roche Inc., priority 2018, dated 2023)
Like-named read-outs stand apart in the source and are kept apart here.

Experiments:
[1] = tested on: HBeAg (surrogate marker for cccDNA) in HepDES19 cells; test: Engineered HepDES19 primary screen assay (HBeAg ELISA); type: cell-based, HBV
Summary of the method: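 HepDES19 cells were induced by Tet withdrawal for 8 days, then treated with half-log compound dilutions (1% DMSO final) for 5 days at 37 °C. HBeAg was measured by ELISA as the cccDNA surrogate, viability by CCK-8, and IC50 from a 4-parameter logistic fit.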

[2] = tested on: HBsAg in HBV-infected PHH; test: Cryopreserved primary human hepatocytes (PHH) HBV infection assay, extracellular HBsAg (CLIA); type: cell-based; details: Hepatitis B virus, Hepatocyte, 216 h, read-out: HBsAg IC50, Cryopreserved PHH infected with HBV, 9 days post-compound treatment, extracellular HBsAg
Description: This assay is used to confirm the anti-HBV effect of the compounds in HBV PHH infection assay. Cryopreserved PHH (BioreclamationIVT, Lot YJM) was thawed at 37° C. and gently transferred into pre-warmed InVitroGRO HT medium (BioreclamationIVT, Cat. S03317). The mixture was centrifuged at 70 relative centrifugal force (RCF) for 3 minutes at RT, and the supernatant was discarded. Pre-warmed InVitroGRO CP medium (BioreclamationIVT, Cat #S03316) was added to the cell pellet to gently re-suspend cells. The cells were seeded at the density of 5.8×10^4 cells per well to collagen I coated 96-well plate (Gibco, Cat. A1142803) with the InVitroGRO CP medium. All plates were incubated at 37° C. with 5% CO2 and 85% humidity.
At 20 hours after plating, the medium was changed to PHH culture medium (Dulbecco's Modified Eagle Medium (DMEM)/F12 (1:1) (Gibco, Cat. 11320-033), 10% fetal bovine semm (Gibco Cat. 10099141), 100 U/mL penicillin, 100 μg/mL streptomycin (Gibco, Cat. 151401-122), […] (Invitrogen Cat. PHG0311L), 20 ng/mL dexamethasone (Sigma, Cat. D4902) and 250 ng/mL human recombinant insulin (Gibco, Cat. 12585-014)). And the cells were incubated at 37° C. with 5% CO2 and 85% humidity for 4 hours. The medium was then changed to pre-warmed PHH culture medium containing 4% polyethylene glycol (PEG) MW8000 (Sigma, Cat. P1458-50 ML) and 1% DMSO (Sigma, Cat. D2650). 5.8×10^6 genomic equivalents of HBV were added into the medium.
At 24 hours post-infection, the cells were gently washed with PBS and refreshed with PHH culture medium supplemented with 1% DMSO, and 0.25 mg/mL Matrix gel (Corning, Cat. 356237) at 200 μL per well. All plates were immediately placed in at 37° C. CO2 incubator.
24 hours later, serial dilutions of compounds made with DMSO were further diluted with the same culture medium (PHH culture medium supplemented with 1% DMSO and 0.25 mg/mL Matrix gel as described above) before they were added to the cells to reach desired final compound concentrations and 1% DMSO concentration. The medium containing the compounds were refreshed every three days.
At 9 days post-compound treatment, extracellular HBsAg level were measured with Chemiluminescence Immuno Assay (CLIA) kit (Autobio, HBsAg Quantitative CLIA). Extracellular HBV DNA was extracted by MagNA Pure 96 system (Roche) and then determined by quantitative PCR with the following primers and probe: […]
HBsAg IC50 and HBV DNA IC50 values were derived from the dose-response curve using 4 parameter logistic curve fit method. The compounds of formula (I) have HBsAg IC50<20 μM, particularly <1 μM; and HBV DNA IC50<50 μM.

[3] = Human microsome stability assay; type: in vitro ADME; details: human liver microsomes, 1 μM test compound, 0.5 mg/mL microsomal protein, 37° C., pH 7.4, 0-30 minutes
Summary of the method: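 Compound (1 μM) incubated at 37 °C with human liver microsomes (0.5 mg/mL protein) in 100 mM potassium phosphate, pH 7.4, after 10 min preincubation; started with NADPH regenerating system. Sampled at 0–30 min, quenched with cold ACN; remaining parent quantified by LC-MS/MS, with no-NADPH controls.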

[4] = Hepatitis B virus, HepDES19, 120 h, read-out: IC50 (HBeAg level, HepDES19 primary screen assay), HepDES19 cells, 5 days compound incubation, HBeAg ELISA

SMILES | IC50 [1, 4] [nM] | IC50 [2] [nM] | Clearance of Human microsome [3] [mL/min/kg] | IC50 ([1]; read-out: IC50 (HBeAg level, HepDES19 primary screen assay), HepDES19 cells, 5 days compound incubation, HBeAg ELISA) [nM]
O=C(O)CCOc1cc(C(F)(F)F)ccc1-c1cc(=O)c2cccc(Cl)c2o1 [Example A001, 3-[2-(8-chloro-4-oxo-chromen-2-yl)-5-(trifluoromethyl)phenoxy]propanoic acid] | 1640 | 1190 | 10.0 | –
O=C(O)CCOc1cc(Br)ccc1-c1cc(=O)c2cccc(Cl)c2o1 [Example A004, 3-[5-bromo-2-(8-chloro-4-oxo-chromen-2-yl)phenoxy]propanoic acid] | 374 | 6610 | 6.15 | –
Cc1cc(-c2cc(=O)c3cccc(Cl)c3o2)c(OCCC(=O)O)cc1Cl [Example A005, 3-[5-chloro-2-(8-chloro-4-oxo-chromen-2-yl)-4-methyl-phenoxy]propanoic acid] | 1370 | 553 | 6.66 | –
COc1cc(-c2cc(=O)c3cccc(Cl)c3o2)c(OCCC(=O)O)cc1Br [Example A007, 3-[5-bromo-2-(8-chloro-4-oxo-chromen-2-yl)-4-methoxy-phenoxy]propanoic acid] | 3150 | 2730 | 6.15 | –
COc1cc(-c2cc(=O)c3cccc(Cl)c3o2)c(OCCC(=O)O)cc1Cl [Example A008, 3-[5-chloro-2-(8-chloro-4-oxo-chromen-2-yl)-4-methoxy-phenoxy]propanoic acid] | 2260 | 948 | 6.15 | –
O=C(O)CCOc1cc(OC(F)(F)F)ccc1-c1cc(=O)c2cccc(Cl)c2o1 [Example A009, 3-[2-(8-chloro-4-oxo-chromen-2-yl)-5-(trifluoromethoxy)phenoxy]propanoic acid] | 403 | 1480 | 6.57 | –
COc1cc(OCCC(=O)O)c(-c2cc(=O)c3cccc(Cl)c3o2)cc1OC [Example A010, 3-[2-(8-chloro-4-oxo-chromen-2-yl)-4,5-dimethoxy-phenoxy]propanoic acid] | 1400 | 3000 | 6.15 | –
Cc1cc(-c2cc(=O)c3cccc(Cl)c3o2)c(OCCC(=O)O)cc1OC(F)(F)F [Example A017, 3-[2-(8-chloro-4-oxo-chromen-2-yl)-4-methyl-5-(trifluoromethoxy)phenoxy]propanoic acid] | 3170 | 1840 | 9.98 | –
O=C(O)CCOc1cc(OC(F)(F)F)ccc1-c1cc(=O)c2cccc(Br)c2o1 [Example A022, 3-[2-(8-bromo-4-oxo-chromen-2-yl)-5-(trifluoromethoxy)phenoxy]propanoic acid] | 983 | 754 | 6.15 | –
Cc1ccc(-c2cc(=O)c3cccc(Br)c3o2)c(OCCC(=O)O)c1 [Example A024, 3-[2-(8-bromo-4-oxo-chromen-2-yl)-5-methyl-phenoxy]propanoic acid] | 570 | 4090 | 6.61 | –
O=C(O)CCOc1cc(Br)cnc1-c1cc(=O)c2cccc(Cl)c2o1 [Example A026, 3-[[5-bromo-2-(8-chloro-4-oxo-chromen-2-yl)-3-pyridyl]oxy]propanoic acid] | 2970 | 2970 | 6.15 | –
O=c1cc(-c2ccc(Br)cc2OC[C@H]2C[C@H](C(=O)O)C2)oc2c(Cl)cccc12 [Example B025-B, Trans-3-[[5-bromo-2-(8-chloro-4-oxo-chromen-2-yl)phenoxy]methyl]cyclobutanecarboxylic acid] | – | 3060 | – | 2270
COc1cc(O[C@H]2C[C@H](C(=O)NS(C)(=O)=O)C2)c(-c2cc(=O)c3cccc(Cl)c3o2)cc1Br [Example B055-B, Trans-3-[4-bromo-2-(8-chloro-4-oxo-chromen-2-yl)-5-methoxy-phenoxy]-N-methylsulfonyl-cyclobutanecarboxamide] | 3880 | 4000 | – | –
N#CC1CC(Oc2cc(C(F)(F)F)ccc2-c2cc(=O)c3cccc(Cl)c3o2)C1 (stereo not drawn) [Example B070, 3-[2-(8-chloro-4-oxo-chromen-2-yl)-5-(trifluoromethyl)phenoxy]cyclobutanecarbonitrile] | 435 | 788 | – | –
CN(C)S(=O)(=O)CCCOc1cc(Br)ccc1-c1cc(=O)c2cccc(Cl)c2o1 [Example B071, 3-[5-bromo-2-(8-chloro-4-oxo-chromen-2-yl)phenoxy]-N,N-dimethyl-propane-1-sulfonamide] | 988 | 4950 | – | –
O=C(O)COCCCOc1cc(Br)ccc1-c1cc(=O)c2cccc(Cl)c2o1 [Example C010, 2-[3-[5-bromo-2-(8-chloro-4-oxo-chromen-2-yl)phenoxy]propoxy]acetic acid] | 696 | 9380 | – | –
Cc1cc(-c2cc(=O)c3cccc(Cl)c3o2)c(OCCO[C@H]2C[C@@H](C(=O)O)C2)cc1Br [Example C031-A, Cis-3-[2-[5-bromo-2-(8-chloro-4-oxo-chromen-2-yl)-4-methyl-phenoxy]ethoxy]cyclobutanecarboxylic acid] | 6190 | 1160 | – | –
COc1cc(OCCO[C@H]2C[C@@H](C(=O)O)C2)c(-c2cc(=O)c3cccc(Cl)c3o2)cc1C [Example C041-A, Cis-3-[2-[2-(8-chloro-4-oxo-chromen-2-yl)-5-methoxy-4-methyl-phenoxy]ethoxy]cyclobutanecarboxylic acid] | 7840 | 5930 | – | –
O=c1cc(-c2ccc(Br)cc2OCCO[C@H]2C[C@@H](C(=O)O)C2)oc2c(Cl)ccc(C(F)(F)F)c12 [Example C049-A, Cis-3-[2-[5-bromo-2-[8-chloro-4-oxo-5-(trifluoromethyl)chromen-2-yl]phenoxy]ethoxy]cyclobutanecarboxylic acid] | 77.5 | 7310 | – | –
Cc1cc(-c2cc(=O)c3cccc(Cl)c3o2)c(OCCO[C@H]2C[C@@H](C(=O)O)C2)cc1Cl [Example C055-A, Cis-3-[2-[5-chloro-2-(8-chloro-4-oxo-chromen-2-yl)-4-methyl-phenoxy]ethoxy]cyclobutanecarboxylic acid] | 4030 | 9270 | – | –
O=C(O)C1CC(OCCOc2cc(N3CCOC3=O)ccc2-c2cc(=O)c3cccc(Cl)c3o2)C1 (stereo not drawn) [Example C062, 3-[2-[2-(8-chloro-4-oxo-chromen-2-yl)-5-(2-oxooxazolidin-3-yl)phenoxy]ethoxy]cyclobutanecarboxylic acid] | 1510 | 6790 | – | –
O=c1cc(-c2ccc(N3CCOCC3)cc2OCCO[C@H]2C[C@H](C(=O)O)C2)oc2c(Cl)cccc12 [Example C067-B, trans-3-[2-[2-(8-chloro-4-oxo-chromen-2-yl)-5-morpholino-phenoxy]ethoxy]cyclobutanecarboxylic acid] | 8360 | 4740 | – | –
NC(=O)COCC(O)COc1cc(Br)ccc1-c1cc(=O)c2cccc(Cl)c2o1 (stereo not drawn) [Example C114, 2-[3-[5-bromo-2-(8-chloro-4-oxo-chromen-2-yl)phenoxy]-2-hydroxy-propoxy]acetamide] | 1240 | 9190 | – | –
